Laboratory results reported in PMC12039745, “Structure and inhibition of diaminopimelic acid epimerase by slow‐binding α‐methyl amino acids” (Protein Science : A Publication of the Protein Society, 2025).

T1: DAP epimerase (DapF) (Arabidopsis thaliana, UniProt Q9LFG2)
T1 sequence (Q9LFG2 52-362): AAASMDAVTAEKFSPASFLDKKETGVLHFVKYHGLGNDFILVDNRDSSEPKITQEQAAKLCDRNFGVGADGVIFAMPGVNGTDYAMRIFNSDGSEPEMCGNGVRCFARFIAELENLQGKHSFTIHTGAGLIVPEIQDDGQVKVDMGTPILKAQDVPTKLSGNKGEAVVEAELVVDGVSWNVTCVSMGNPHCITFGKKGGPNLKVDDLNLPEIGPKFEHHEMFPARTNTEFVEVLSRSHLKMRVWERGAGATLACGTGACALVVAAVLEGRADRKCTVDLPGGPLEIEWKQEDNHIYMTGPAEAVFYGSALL


How the values were obtained:
DAP epimerase (DapF) [1] = biological target: T2, DAP epimerase (DapF); experiment: X-ray crystal structure ([…] Å); DAP dehydrogenase-coupled inhibition assay after […] h incubation; type: biochemical, Anabaena sp. YBS01
T2 construct: C-terminal hexahistidine tag

DAP epimerase (DapF) [2] = biological target: T1, DAP epimerase (DapF); experiment: DAP dehydrogenase-coupled assay at […] inhibitor, time-dependent pre-incubation; type: biochemical
DAP epimerase (DapF) [3] = biological target: T2, DAP epimerase (DapF); experiment: DAP dehydrogenase-coupled assay, […] h pre-incubation, slow-binding; type: biochemical, Anabaena sp. YBS01
purified protein = substrate: N[C@@H](CCC[C@H](N)C(=O)O)C(=O)O; experiment: purified protein

Row | Molecule | IC50 (DAP epimerase (DapF) [1]) [µM] | DAP dehydrogenase-coupled assay at 250 μM inhibitor, time-dependent pre-incubati (DAP epimerase (DapF) [2]) | IC50 (DAP epimerase (DapF) [3]) [µM] | Km (purified protein) [µM]
1 | C[C@@](N)(CCC[C@H](N)C(=O)O)C(=O)O [D,L-α-methylDAP, (2R,6S)‐2,6‐diamino‐2‐methylheptanedioic acid] | 160 | A. thaliana DapF behaved similarly to Anabaena DapF and activity decreased with increasing length of pre‐incubation |  | 
2 | C[C@](N)(CCC[C@H](N)C(=O)O)C(=O)O [L,L-α-methylDAP] |  | A. thaliana DapF behaved similarly to Anabaena DapF and activity decreased with increasing length of pre‐incubation | 120 | 
3 | DAP epimerase (DapF) (Arabidopsis thaliana) (protein) AAASMDAVTAEKFSPASFLDKKETGVLHFVKYHGLGNDFILVDNRDSSEPKITQEQAAKLCDRNFGVGADGVIFAMPGVNGTDYAMRIFNSDGSEPEMCGNGVRCFARFIAELENLQGKHSFTIHTGAGLIVPEIQDDGQVKVDMGTPILKAQDVPTKLSGNKGEAVVEAELVVDGVSWNVTCVSMGNPHCITFGKKGGPNLKVDDLNLPEIGPKFEHHEMFPARTNTEFVEVLSRSHLKMRVWERGAGATLACGTGACALVVAAVLEGRADRKCTVDLPGGPLEIEWKQEDNHIYMTGPAEAVFYGSALL |  |  |  | 68
